Results: ChEMBL document CHEMBL1144518, “1-Methylpyridinium-4-(4-phenylmethanethiosulfonate) iodide, MTS-MPP+, a novel scanning cysteine accessibility method (SCAM) reagent for monoamine transporter studies” (Bioorg Med Chem, 2007)
Active and inactive are the calls of the source. The rule behind the calls is not given here.

What was measured:
[1] = target: Sodium-dependent serotonin transporter (Homo sapiens, UniProt P31645, C109A); assay: Inhibition of [3H]5-HT uptake at human SERT C109A mutant transfected in HEK cells; type: cell-based, HEK293
[2] = target: Sodium-dependent serotonin transporter (Homo sapiens, UniProt P31645, G498C); assay: Decrease in [3H]5-HT uptake at human SERT G498C mutant transfected in HEK293 cells; type: cell-based
[3] = system: Sodium-dependent serotonin transporter (Homo sapiens), P31645 [C109A]; assay: Activation of inward current at human SERT C109A mutant expressed in Xenopus laevis oocytes; type: cell-based; conditions: Oocyte
[4] = system: Sodium-dependent serotonin transporter (Homo sapiens), P31645 [C109A]; assay: Blockade of leak current of human SERT C109A mutant expressed in Xenopus laevis oocytes assessed as outward current at 30 uM; type: cell-based; conditions: Oocyte

Row | SMILES | Ki [1] [µM] | EC50 [2] [µM] | Activity [3] | Activity [4]
1 | C[n+]1ccc(-c2ccccc2)cc1 | 48 |  |  | 
2 | C[N+](C)(C)CCSS(C)(=O)=O |  | 3.16 |  | 
3 | C[n+]1ccc(-c2ccc(SS(C)(=O)=O)cc2)cc1 | 1300 | 3.98 | inactive | Active
